# Biological target: T1, AM2 receptor (CALCRL+RAMP3) (Homo sapiens, UniProt O60896+Q16602)
# T1 construct: host or cells: 1321N1
# Experiment: AM2 receptor inhibition, LANCE TR-FRET cAMP agonist-antagonist competition assay
# Assay type: cell-based
# Conditions: inhibition of AM induced cAMP activation; 1321N1 cells transfected with CALCRL+RAMP3; read-out: AM2 pIC50 (converted)
# Experimental: Compounds were assessed for their ability to inhibit ligand-induced elevations of cAMP, using the Perkin Elmer LANCE cAMP assay using commercially-available cells expressing a specific receptor of interest using the following general procedure:
# Compounds were prepared in dimethyl sulfoxide (DMSO—99.9% pure) (Sigma Aldrich, Cat #: D4540) added to powder stocks to produce a 20 mM solution (100% DMSO) that was sonicated at 37° C. for 10 minutes to fully dissolve the compounds. The 20 mM stocks were diluted further in DMSO to produce a 2 mM solution that was sonicated at 37° C. for 10 minutes. 2 mM stocks were dissolved in assay/stimulation buffer to produce a 400 μM solution that was sonicated at 37° C. for 10 minutes for all cAMP assays. All stocks were stored at −20° C. Then serial dilution (Dilution factor 10) was performed to achieve the desire experimental concentrations.
# Competition assays were performed according to the manufactures instructions using LANCE® TR-FRET cAMP assay kit (Perkin Elmer, Cat #: AD0264). Serial dilutions (3 μl/well) of the molecules were plated in a 384-well OptiPlate (Perkin Elmer, Cat #: 6007299) in duplicates. Appropriate controls (100% stimulation: Forskolin and 0% stimulation: Vehicle control) (6 μl/well) were included in each plate for data normalization. Following the compound addition, 6 μl of G-protein coupled receptor overexpressing cells/Alexa Fluor antibody solution (1:100 dilution) was added in each well at a desired density of 2500 cells/well. The overexpressing cell lines were purchased from DiscoveRx, Birmingham, UK. After spinning the plate at 1000 rpm for 1 minute and vortexing briefly, the cells were pre-incubated with the compounds for 30 minutes at room temperature (covered). Then 3 μl of the equivalent peptide ligand (EC50 dose) was added to all the wells except vehicle and forskolin controls. The plate were then spun down at 1000 rpm for 1 minute and once finished they were vortexed briefly and covered. Cells were stimulated in the presence of the ligands for 15 minutes at room temperature. After stimulation 12 μl of detection mix (Europium-Chelate streptavidin/biotinylated cAMP tracer solution) was added to all wells and incubated for 60 minutes at room temperature. The plate was then read on the Enspire multimode Plate reader (Perkin Elmer), at; 320/340 nm excitation and 615/665 nm emission was recorded.
# • 28 mL Hank's Balanced salt solution (+MgCl2, +CaCl2)—(Thermo Fisher Cat #:14170112) • 150 μl HEPES (1M)—(Thermo Fisher Cat #:15630080) • 400 μl Stabilizer (DTPA) Purified BSA (7.5%)—(Perkin Elmer, Cat #: CR84-100) • 60 μl IBMX (250 mM)—(Sigma Aldrich, Cat #: 15879) Specific cAMP/Agonist-Antagonist Competition Assays
# The ability of a compound to inhibit the AM induced cAMP activation in AM2 receptor-expressing cells (1321N1 cells transfected with CALCRL+RAMP3, sourced from DiscoverX catalogue number 95-0169C6) was assessed using the protocol above.
# T1 sequence (Q16602 23-461): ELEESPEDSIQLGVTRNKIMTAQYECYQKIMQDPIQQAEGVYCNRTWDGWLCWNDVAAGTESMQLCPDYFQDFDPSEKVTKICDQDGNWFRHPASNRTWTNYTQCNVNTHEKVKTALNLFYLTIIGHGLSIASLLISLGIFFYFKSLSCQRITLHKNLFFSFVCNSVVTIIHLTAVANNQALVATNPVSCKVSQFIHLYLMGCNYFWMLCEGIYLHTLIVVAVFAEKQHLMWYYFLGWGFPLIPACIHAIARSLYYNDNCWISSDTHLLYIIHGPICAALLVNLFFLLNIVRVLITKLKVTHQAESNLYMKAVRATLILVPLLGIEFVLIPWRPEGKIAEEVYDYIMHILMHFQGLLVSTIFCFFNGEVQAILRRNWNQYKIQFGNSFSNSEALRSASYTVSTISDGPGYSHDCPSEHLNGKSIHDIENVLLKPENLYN
# T1 sequence (O60896 24-148): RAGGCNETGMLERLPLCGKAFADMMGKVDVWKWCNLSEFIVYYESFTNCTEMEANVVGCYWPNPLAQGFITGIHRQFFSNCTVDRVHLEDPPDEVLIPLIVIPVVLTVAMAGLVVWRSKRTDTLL
row,SMILES,IC50 [µM]
1,"CNCc1ccccc1CN(CC(=O)Nc1ccc2c(c1)CC1(C2)C(=O)Nc2ncccc21)C(=O)C1(C)COC1 (stereo not shown) [Example 58, 3-Methyl-N-(2-((methylamino)methyl)benzyl)-N-(2-oxo-2-((2′-oxo-1,1′,2′,3-tetrahydrospiro[indene-2,3′-pyrrolo[2,3-b]pyridin]-5-yl)amino)ethyl)oxetane-3-carboxamide]",0.0151
2,"CNCc1ccccc1CN(CC(=O)Nc1ccc2c(c1)CC1(C2)C(=O)Nc2ncccc21)C(=O)C(C)(C)OC (stereo not shown) [Example 59, 2-Methoxy-2-methyl-N-(2-((methylamino)methyl)benzyl)-N-(2-oxo-2-((2′-oxo-1,1′,2′,3-tetrahydrospiro[indene-2,3′-pyrrolo[2,3-b]pyridin]-5-yl)amino)ethyl)propanamide]",0.00933
3,"CNCc1ccccc1CN(CC(=O)Nc1ccc2c(c1)CC1(C2)C(=O)Nc2ncccc21)C(=O)c1cscn1 (stereo not shown) [Example 60, N-(2-((Methylamino)methyl)benzyl)-N-(2-oxo-2-((2′-oxo-1,1′,2′,3-tetrahydrospiro[indene-2,3′-pyrrolo[2,3-b]pyridin]-5-yl)amino)ethyl)thiazole-4-carboxamide]",0.00708
4,"CNCc1ccccc1CN(CC(=O)Nc1ccc2c(c1)CC1(C2)C(=O)Nc2ncccc21)C(=O)c1csc(C)n1 (stereo not shown) [Example 61, 2-Methyl-N-(2-((methylamino)methyl)benzyl)-N-(2-oxo-2-((2′-oxo-1,1′,2′,3-tetrahydrospiro[indene-2,3′-pyrrolo[2,3-b]pyridin]-5-yl)amino)ethyl)thiazole-4-carboxamide]",0.219
5,"CNCc1ccccc1CN(CC(=O)Nc1ccc2c(c1)CC1(C2)C(=O)Nc2ncccc21)C(=O)c1ncsc1C (stereo not shown) [Example 62, 5-Methyl-N-(2-((methylamino)methyl)benzyl)-N-(2-oxo-2-((2′-oxo-1,1′,2′,3-tetrahydrospiro[indene-2,3′-pyrrolo[2,3-b]pyridin]-5-yl)amino)ethyl)thiazole-4-carboxamide]",0.0427
6,"CNCc1ccccc1CN(CC(=O)Nc1ccc2c(c1)CC1(C2)C(=O)Nc2ncccc21)C(=O)C1CCCO1 (stereo not shown) [Example 63, N-(2-((Methylamino)methyl)benzyl)-N-(2-oxo-2-((2′-oxo-1,1′,2′,3-tetrahydrospiro[indene-2,3′-pyrrolo[2,3-b]pyridin]-5-yl)amino)ethyl)tetrahydrofuran-2-carboxamide]",0.0537
7,"CNCc1ccccc1CN(CC(=O)Nc1ccc2c(c1)CC1(C2)C(=O)Nc2ncccc21)C(=O)C1CCCCO1 (stereo not shown) [Example 64, N-(2-((Methylamino)methyl)benzyl)-N-(2-oxo-2-((2′-oxo-1,1′,2′,3-tetrahydrospiro[indene-2,3′-pyrrolo[2,3-b]pyridin]-5-yl)amino)ethyl)tetrahydro-2H-pyran-2-carboxamide]",0.0851
8,"CNCc1ccccc1CN(CC(=O)Nc1ccc2c(c1)CC1(C2)C(=O)Nc2ncccc21)C(=O)C1CCCC1 (stereo not shown) [Example 65, N-(2-((methylamino)methyl)benzyl)-N-(2-oxo-2-((2′-oxo-1,1′,2′,3-tetrahydrospiro[indene-2,3′-pyrrolo[2,3-b]pyridin]-5-yl)amino)ethyl)cyclopentanecarboxamide]",0.00282
9,"CNCc1ccccc1CN(CC(=O)Nc1ccc2c(c1)CC1(C2)C(=O)Nc2ncccc21)C(=O)N1CCC(OC)C1 (stereo not shown) [Example 67, 3-Methoxy-N-[[2-(methylaminomethyl)phenyl]methyl]-N-[2-oxo-2-[(2-oxospiro[1H-pyrrolo[2,3-b]pyridine-3,2′-indane]-5′-yl)amino]ethyl]pyrrolidine-1-carboxamide]",0.0646
10,"CNCc1ccccc1CN(CC(=O)Nc1ccc2c(c1)CC1(C2)C(=O)Nc2ncccc21)C(=O)C1CN(C(C)=O)C1 (stereo not shown) [Example 68, 1-(Acetyl)-N-[[2-(methylaminomethyl)phenyl]methyl]-N-[2-oxo-2-[(2-oxospiro[1H-pyrrolo[2,3-b]pyridine-3,2′-indane]-5′-yl)amino]ethyl]azetidine-3-carboxamide]",0.0331
11,"CNCc1ccccc1CN(CC(=O)Nc1ccc2c(c1)CC1(C2)C(=O)Nc2ncccc21)C(=O)C1CCCN1C(C)=O (stereo not shown) [Example 69, 1-Acetyl-N-[[2-(methylaminomethyl)phenyl]methyl]-N-[2-oxo-2-[(2-oxospiro[1H-pyrrolo[2,3-b]pyridine-3,2′-indane]-5′-yl)amino]ethyl]pyrrolidine-2-carboxamide]",0.129
12,"CNCc1ccccc1CN(CC(=O)Nc1ccc2c(c1)CC1(C2)C(=O)Nc2ncccc21)C(=O)C1CCN(C(=O)CN)CC1 (stereo not shown) [Example 70, 1-(2-aminoacetyl)-N-(2-((methylamino)methyl)benzyl)-N-(2-oxo-2-((2′-oxo-1,1′,2′,3-tetrahydrospiro[indene-2,3′-pyrrolo[2,3-b]pyridin]-5-yl)amino)ethyl)piperidine-4-carboxamide bis(2,2,2-trifluoroacetate)]",0.0447
13,"CNCc1ccccc1CN(CC(=O)Nc1ccc2c(c1)CC1(C2)C(=O)Nc2ncccc21)C(=O)C1CCN(C(=O)N(C)C)CC1 (stereo not shown) [Example 71, N1,N1-dimethyl-N4-(2-((methylamino)methyl)benzyl)-N4-(2-oxo-2-((2′-oxo-1,1′,2′,3-tetrahydrospiro[indene-2,3′-pyrrolo[2,3-b]pyridin]-5-yl)amino)ethyl)piperidine-1,4-dicarboxamide 2,2,2-trifluoroacetate]",0.00245
14,"CNCc1ccccc1CN(CC(=O)Nc1ccc2c(c1)CC1(C2)C(=O)Nc2ncccc21)C(=O)C1CCN(C(=O)NC(C)C)CC1 (stereo not shown) [Example 73, N1-isopropyl-N4-(2-((methylamino)methyl)benzyl)-N4-(2-oxo-2-((2′-oxo-1,1′,2′,3-tetrahydrospiro[indene-2,3′-pyrrolo[2,3-b]pyridin]-5-yl)amino)ethyl)piperidine-1,4-dicarboxamide 2,2,2-trifluoroacetate]",0.00832
15,"CNCc1ccccc1CN(CC(=O)Nc1ccc2c(c1)CC1(C2)C(=O)Nc2ncccc21)C(=O)C1CCN(C(C)=O)C1 (stereo not shown) [Example 74, 1-acetyl-N-(2-((methylamino)methyl)benzyl)-N-(2-oxo-2-((2′-oxo-1,1′,2′,3-tetrahydrospiro[indene-2,3′-pyrrolo[2,3-b]pyridin]-5-yl)amino)ethyl)pyrrolidine-3-carboxamide 2,2,2-trifluoroacetate]",0.0155
16,"CNCc1ccccc1CN(CC(=O)Nc1ccc2c(c1)CC1(C2)C(=O)Nc2ncccc21)C(=O)C1(C(F)(F)F)CC1 (stereo not shown) [Example 75, N-[[2-(methylaminomethyl)phenyl]methyl]-N-[2-oxo-2-[(2-oxospiro[1H-pyrrolo[2,3-b]pyridine-3,2′-indane]-5′-yl)amino]ethyl]-1-(trifluoromethyl)cyclopropanecarboxamide 2,2,2-trifluoroacetate]",0.00363
17,"CNCc1ccccc1CN(CC(=O)Nc1ccc2c(c1)CC1(C2)C(=O)Nc2ncccc21)C(=O)C1(C(F)(F)F)CCC1 (stereo not shown) [Example 76, N-[[2-(methylaminomethyl)phenyl]methyl]-N-[2-oxo-2-[(2-oxospiro[1H-pyrrolo[2,3-b]pyridine-3,2′-indane]-5′-yl)amino]ethyl]-1-(trifluoromethyl)cyclobutanecarboxamide 2,2,2-trifluoroacetate]",0.00135
18,"CNCc1ccccc1CN(CC(=O)Nc1ccc2c(c1)CC1(C2)C(=O)Nc2ncccc21)C(=O)C12CC(N)(C1)C2 (stereo not shown) [Example 77, 3-amino-N-[[2-(methylaminomethyl)phenyl]methyl]-N-[2-oxo-2-[(2-oxospiro[1H-pyrrolo[2,3-b]pyridine-3,2′-indane]-5′-yl)amino]ethyl]bicyclo[1.1.1]pentane-1-carboxamide bis(2,2,2-trifluoroacetate)]",0.0447
19,"CNCc1ccccc1CN(CC(=O)Nc1ccc2c(c1)CC1(C2)C(=O)Nc2ncccc21)C(=O)C12CC(C1)C2 (stereo not shown) [Example 78, N-(2-((methylamino)methyl)benzyl)-N-(2-oxo-2-((2′-oxo-1,1′,2′,3-tetrahydrospiro[indene-2,3′-pyrrolo[2,3-b]pyridin]-5-yl)amino)ethyl)bicyclo[1.1.1]pentane-1-carboxamide 2,2,2-trifluoroacetate]",0.0055

# From patent US11400081B2, “Compounds” (The University of Sheffield, priority 2017, dated 2022)
